Laboratory results: ChEMBL document CHEMBL1139589, “In vitro antiproliferative activity against human colon cancer cell lines of representative 4-thiazolidinones. Part I” (Bioorg Med Chem Lett, 2005)
pIC50: −log10 of the molar value.

How the values were obtained:
[1] = biological target: T1, Prostaglandin G/H synthase 2 (Homo sapiens, UniProt P35354); assay: In vitro inhibition activity against cyclooxygenase 2 with the compound dissolved in DMSO
T1 sequence (P35354 whole entry): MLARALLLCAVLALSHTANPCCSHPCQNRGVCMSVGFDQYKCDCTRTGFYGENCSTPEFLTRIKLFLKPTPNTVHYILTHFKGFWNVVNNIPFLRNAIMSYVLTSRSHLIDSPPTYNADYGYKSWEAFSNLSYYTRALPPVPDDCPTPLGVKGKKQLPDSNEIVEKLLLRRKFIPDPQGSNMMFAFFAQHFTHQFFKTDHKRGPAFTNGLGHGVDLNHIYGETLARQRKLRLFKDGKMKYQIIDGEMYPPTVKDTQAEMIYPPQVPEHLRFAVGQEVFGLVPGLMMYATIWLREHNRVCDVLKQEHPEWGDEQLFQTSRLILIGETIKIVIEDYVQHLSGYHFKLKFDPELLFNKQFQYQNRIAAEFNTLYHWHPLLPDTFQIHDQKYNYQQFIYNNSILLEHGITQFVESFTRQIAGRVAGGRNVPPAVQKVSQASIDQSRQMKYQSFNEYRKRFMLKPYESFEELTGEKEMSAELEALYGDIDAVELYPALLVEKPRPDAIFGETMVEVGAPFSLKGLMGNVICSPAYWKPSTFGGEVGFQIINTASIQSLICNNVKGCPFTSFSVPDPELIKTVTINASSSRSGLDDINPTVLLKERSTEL

[2] = biological target: T2, Prostaglandin G/H synthase 1 (Homo sapiens, UniProt P23219); assay: In vitro inhibition activity against cyclooxygenase 1 with the compound dissolved in DMSO
[3] = Inhibition of growth of H630 cell line after 96 hours of exposure time with the compound dissolved in DMSO; assay type: functional, cell-based; conditions: Homo sapiens, NCI-H630, 96 h
[4] = Inhibition of growth of HCT116 cell line after 72+72 hours of exposure time with the compound dissolved in DMSO; assay type: functional, cell-based; conditions: Homo sapiens, HCT-116, 72 h
[5] = biological target: T3, Prostaglandin G/H synthase 2 (Homo sapiens) (UniProt P35354); conditions: at 10 µM
T3 sequence (whole entry): T1 sequence (P35354 whole entry)
Description: Percentage inhibition activity at a concentration of 10 uM against cyclooxygenase 2 with the compound dissolved in DMSO

[6] = test system: DLD-1; assay: Inhibition of growth of DLD-1 cell line after 96 hours of exposure time with the compound dissolved in DMSO; assay type: functional, cell-based; conditions: Homo sapiens, DLD-1, 96 h
[7] = test system: HT-29; assay: Inhibition of growth of HT-29 cell line after 24+72 hours of exposure time with the compound dissolved in DMSO; assay type: functional, cell-based; conditions: Homo sapiens, HT-29, 72 h
[8] = test system: HT-29; assay: Inhibition of growth of HT-29 cell line after 72 hours of exposure time with the compound dissolved in DMSO; assay type: functional, cell-based; conditions: Homo sapiens, HT-29, 72 h
[9] = Inhibition of growth of HCT116 cell line after 96 hours of exposure time with the compound dissolved in DMSO; assay type: functional, cell-based; conditions: Homo sapiens, HCT-116, 96 h
[10] = test system: HCT-116; assay: Inhibition of growth of HCT116 cell line after 72 hours of exposure time with the compound dissolved in DMSO; assay type: functional, cell-based; conditions: Homo sapiens, HCT-116, 72 h
[11] = test system: HT-29; assay: Inhibition of growth of HT-29 cell line after 96 hours of exposure time with the compound dissolved in DMSO; assay type: functional, cell-based; conditions: Homo sapiens, HT-29, 96 h
[12] = test system: DLD-1; assay: Inhibition of growth of DLD-1 cell line after 72 hours of exposure time with the compound dissolved in DMSO; assay type: functional, cell-based; conditions: Homo sapiens, DLD-1, 72 h
[13] = biological target: T2, Prostaglandin G/H synthase 1; conditions: at 10 µM
Description: Percentage inhibition activity at a concentration of 10 uM against cyclooxygenase 1 with the compound dissolved in DMSO

[14] = test system: DLD-1; assay: Inhibition of growth of DLD-1 cell line after 72+72 hours of exposure time with the compound dissolved in DMSO; assay type: functional, cell-based; conditions: Homo sapiens, DLD-1, 72 h
[15] = test system: HCT-8; assay: Inhibition of growth of HCT-8 cell line after 72 hours of exposure time with the compound dissolved in DMSO; assay type: functional, cell-based; conditions: Homo sapiens, HCT-8, 72 h
[16] = Inhibition of growth of H630 cell line after 72 hours of exposure time with the compound dissolved in DMSO; assay type: functional, cell-based; conditions: Homo sapiens, NCI-H630, 72 h
[17] = test system: HT-29; assay: Inhibition of growth of HT-29 cell line after 72+72 hours of exposure time with the compound dissolved in DMSO; assay type: functional, cell-based; conditions: Homo sapiens, HT-29, 72 h
[18] = test system: HCT-8; assay: Inhibition of growth of HCT-8 cell line after 96 hours of exposure time with the compound dissolved in DMSO; assay type: functional, cell-based; conditions: Homo sapiens, HCT-8, 96 h
[19] = Inhibition of growth of HCT116 cell line after 24+72 hours of exposure time with the compound dissolved in DMSO; assay type: functional, cell-based; conditions: Homo sapiens, HCT-116, 72 h
[20] = test system: DLD-1; assay: Inhibition of growth of DLD-1 cell line after 24+72 hours of exposure time with the compound dissolved in DMSO; assay type: functional, cell-based; conditions: Homo sapiens, DLD-1, 72 h

T2 sequence (P23219 whole entry): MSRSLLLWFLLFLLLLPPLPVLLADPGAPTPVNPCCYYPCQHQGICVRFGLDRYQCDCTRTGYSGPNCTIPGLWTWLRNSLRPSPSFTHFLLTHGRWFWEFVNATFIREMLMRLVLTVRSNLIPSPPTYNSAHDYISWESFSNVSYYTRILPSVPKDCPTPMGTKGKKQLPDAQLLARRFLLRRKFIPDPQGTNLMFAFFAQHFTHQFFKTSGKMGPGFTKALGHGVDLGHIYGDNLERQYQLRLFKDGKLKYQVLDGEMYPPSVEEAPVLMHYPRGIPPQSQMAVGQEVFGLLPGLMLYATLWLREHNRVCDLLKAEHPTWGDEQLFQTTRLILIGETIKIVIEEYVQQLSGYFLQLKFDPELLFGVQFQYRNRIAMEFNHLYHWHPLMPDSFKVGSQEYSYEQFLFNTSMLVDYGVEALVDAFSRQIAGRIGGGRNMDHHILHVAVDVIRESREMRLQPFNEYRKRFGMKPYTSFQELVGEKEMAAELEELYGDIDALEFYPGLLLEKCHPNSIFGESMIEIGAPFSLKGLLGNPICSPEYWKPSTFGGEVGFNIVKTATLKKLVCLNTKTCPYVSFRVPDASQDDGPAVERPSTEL

| SMILES | pIC50 [1] | pIC50 [2] | pIC50 [3] | pIC50 [4] | inhibition [5] [%] | pIC50 [6] | pIC50 [7] | pIC50 [8] | pIC50 [9] | pIC50 [10] | pIC50 [11] | pIC50 [12] | inhibition [13] [%] | pIC50 [14] | pIC50 [15] | pIC50 [16] | pIC50 [17] | pIC50 [18] | pIC50 [19] | pIC50 [20] |
| --- | --- | --- | --- | --- | --- | --- | --- | --- | --- | --- | --- | --- | --- | --- | --- | --- | --- | --- | --- | --- |
| COc1ccc(C2SCC(=O)N2CCN2C(=O)CSC2c2ccc(OC)cc2)cc1 (stereo not given) | 5.95 | 4.27 | – | – | – | – | – | – | – | – | – | – | – | – | – | – | – | – | – | – |
| CCCN1C(=O)/C(=C/c2cccc(OC)c2)S/C1=N/c1ccccc1 | – | – | < 4.00 | < 4.00 | 24 | 4.88 | 4.03 | 4.19 | 4.47 | < 4.00 | 4.63 | < 4.00 | 0 | < 4.00 | < 4.00 | < 4.00 | 4.44 | < 4.00 | < 4.00 | < 4.00 |
| O=C1NC(=O)/C(=C/c2cccc(C(F)(F)F)c2)S1 | – | – | 4.08 | 4.43 | 0 | 4.75 | 4.14 | 4.41 | 4.34 | 4.31 | 4.22 | 4.43 | 0 | 4.50 | 4.00 | 4.01 | 4.50 | 4.09 | 4.04 | 4.40 |
| CCCN1C(=O)CS/C1=N/c1ccccc1 | – | – | – | – | 0 | – | – | – | – | – | – | – | 8 | – | – | – | – | – | – | – |
